Laboratory results: patent publication US20230131929A1, “QUINOLINE COMPOUNDS FOR TREATING RESPIRATORY DISORDERS AND VIRAL INFECTIONS” (Aldeyra Therapeutics, Inc., priority 2020, published 2023)

Key:
[1] = tested on: inflammatory cytokines and chemokines; assay: LPS-induced mouse model of acute sepsis, plasma cytokine profile; type: in vivo; settings: for IL-10 plasma level, significance of effect: anti-inflammatory cytokine, release facilitated
Experimental: FIG. 4 and FIG. 5 show the effect of compound I-1 on levels of various inflammatory cytokines in a preclinical sepsis model. In the study, lipopolysaccharide (LPS) was administered IP to mice. 30 minutes later, I-1 was administered IP or PO. Mice were sacrificed after 2 hours, and their plasma submitted for cytokine profile analysis. IP=intraperitoneally; PO=orally; mpk=mg per kg. […]
FIG. 4 and FIG. 5 show the effect of compound I-1 on levels of various inflammatory cytokines in a preclinical sepsis model. In the study, lipopolysaccharide (LPS) was administered IP to mice. 30 minutes later, I-1 was administered IP or PO. Mice were sacrificed after 2 hours, and their plasma submitted for cytokine profile analysis. IP=intraperitoneally; PO=orally. As shown in the table below, I-1 decreased several pro-inflammatory cytokines. * P≤0.05; ** P≤0.01; *** P≤0.001; **** P≤0.0001.

rodent models of NASH = type: in vivo; settings: three different rodent models of NASH
Source text: (§1) These cytokines and chemokines affect Th1, Th2, and Th17 pathways, all of which are important in immune homeostasis and disease (Kaiko et al., Immunology 123:326-338, 2007. DOI 10.1111/j.1365-2567.2007.02719.x.; Weaver et al., Annu. Rev. Pathol 8:477-512, 2013. DOI 10.1146/annurev-pathol-011110-130318).

[2] = dextran sulfate sodium (DSS)-induced mouse model of UC; type: in vivo
Source text: as §1

[3] = clinical trials; cited from earlier work
leukocyte migration = assay: LPS-induced acute lung injury model (preclinical ARDS model); type: in vivo; settings: administered IP
Source text: In the bottom panel, the effect of test compounds on leukocyte migration is shown in the model. […] Free RASP are toxic, leading to inflammation and molecular dysfunction by covalently binding to cellular biomolecules, and have been linked to systemic immune-mediated and inflammatory diseases, such as NASH, inflammatory bowel disease (IBD), and other diseases. […]

[4] = 100 mpk IP 30 min after LPS IP, mice, plasma after 2 hours
[5] = 400 mpk PO 30 min after LPS IP, mice, plasma after 2 hours
[6] = LPS-induced mouse model of acute sepsis
[7] = LPS-induced acute lung injury model

CC(C)(O)c1nc2ccccc2cc1N [I-1]
GM-CSF plasma level, significance of effect [1, 4]: * (* P≤0.05)
IFNγ plasma level, significance of effect [1, 4]: *** (*** P≤0.001)
IL-1β plasma level, significance of effect [1, 4]: ** (** P≤0.01)
IL-5 plasma level, significance of effect [1, 4]: **** (**** P≤0.0001)
IL-7 plasma level, significance of effect [1, 4]: ** (** P≤0.01)
IL-12 (p40) plasma level, significance of effect [1, 4]: *** (*** P≤0.001)
IL-17 plasma level, significance of effect [1, 4]: ** (** P≤0.01)
M-CSF plasma level, significance of effect [1, 4]: * (* P≤0.05)
MIP-1α plasma level, significance of effect [1, 4]: ** (** P≤0.01)
MIP-1β plasma level, significance of effect [1, 4]: ** (** P≤0.01)
MIP-2 plasma level, significance of effect [1, 4]: ** (** P≤0.01)
TNFα plasma level, significance of effect [1, 4]: * (* P≤0.05)
VEGF plasma level, significance of effect [1, 4]: * (* P≤0.05)
IL-10 plasma level, significance of effect [1, 4]: ** (** P≤0.01)
IFNγ plasma level, significance of effect [1, 5]: *** (*** P≤0.001)
IL-1β plasma level, significance of effect [1, 5]: ** (** P≤0.01)
IL-5 plasma level, significance of effect [1, 5]: **** (**** P≤0.0001)
IL-7 plasma level, significance of effect [1, 5]: * (* P≤0.05)
IL-12 (p40) plasma level, significance of effect [1, 5]: **** (**** P≤0.0001)
IL-15 plasma level, significance of effect [1, 5]: ** (** P≤0.01)
IL-17 plasma level, significance of effect [1, 5]: * (* P≤0.05)
M-CSF plasma level, significance of effect [1, 5]: *** (*** P≤0.001)
MCP-1 plasma level, significance of effect [1, 5]: ** (** P≤0.01)
MIP-1α plasma level, significance of effect [1, 5]: * (* P≤0.05)
MIP-1β plasma level, significance of effect [1, 5]: * (* P≤0.05)
IL-10 plasma level, significance of effect [1, 5]: ** (** P≤0.01)
release of inflammatory cytokines and chemokines [1, 6]: inhibit the release
release of the anti-inflammatory cytokine interleukin (IL)-10 [1, 6]: facilitate the release
circulating markers of liver function and inflammation (liver inflammation, steatosis, hepatocyte ballooning, fibrosis) (rodent models of NASH): may have beneficial effects
disease parameters (body weight loss, disease activity score, colon length, colon edema, colon inflammation) [2]: improved several disease parameters

CC(C)(O)c1nc2ccc(Cl)cc2cc1N [I-2, reproxalap]
effect in treating ocular inflammation [3]: beneficial effects
infiltrating cells (leukocyte migration; [7]): decreased infiltrating cells
lung function (leukocyte migration; [7]): improved lung function
activity in LPS-induced acute lung injury model (leukocyte migration; compared with saline and dexamethasone): promising activity
